From patent publication US11945836B2, “Compositions and methods for treating CNS disorders” (Sage Therapeutics, Inc., priority 2014, dated 2024)
pIC50: −log10 of the molar value.

molecular target: rat brain cortical membranes ([35S]-TBPS binding); test: Steroid inhibition of [35S]-TBPS binding (radioligand displacement); details: 3 nM [35S]-TBPS, in the presence of 5 μM GABA
Method: Steroid Inhibition of TBPS Binding
TBPS binding assays using rat brain cortical membranes in the presence of 5 μM GABA has been described (Gee et al, J. Pharmacol. Exp. Ther. 1987, 241, 346-353; Hawkinson et al, Mol. Pharmacol. 1994, 46, 977-985; Lewin, A. H et al., Mol. Pharmacol. 1989, 35, 189-194).
Briefly, cortices are rapidly removed following decapitation of carbon dioxide-anesthetized Sprague-Dawley rats (200-250 g). The cortices are homogenized in 10 volumes of ice-cold 0.32 M sucrose using a glass/teflon homogenizer and centrifuged at 1500×g for 10 min at 4° C. The resultant supernatants are centrifuged at 10,000×g for 20 min at 4° C. to obtain the P2 pellets. The P2 pellets are resuspended in 200 mM NaCl/50 mM Na—K phosphate pH 7.4 buffer and centrifuged at 10,000×g for 10 min at 4° C. This washing procedure is repeated twice and the pellets are resuspended in 10 volumes of buffer. Aliquots (100 uL) of the membrane suspensions are incubated with 3 nM [^35S]-TBPS and 5 μL aliquots of test drug dissolved in dimethyl sulfoxide (DMSO) (final 0.5%) in the presence of 5 μM GABA. The incubation is brought to a final volume of 1.0 mL with buffer. […] Following a 90 min incubation at room temp, the assays are terminated by filtration through glass fiber filters (Schleicher and Schuell No. 32) using a cell harvester (Brandel) and rinsed three times with ice-cold buffer. Filter bound radioactivity is measured by liquid scintillation spectrometry. Non-linear curve fitting of the overall data for each drug averaged for each concentration is done using Prism (GraphPad). […] The concentration of test compound producing 50% inhibition (IC50) of specific binding and the maximal extent of inhibition (Imax) are determined for the individual experiments with the same model used for the overall data and then the means±SEMs of the individual experiments are calculated.
Various compounds are or can be screened to determine their potential as modulators of [^35S]-TBPS binding in vitro. These assays are or can be performed in accordance with the above discussed procedures.

Compound	pIC50
COC[C@]12CC[C@@](C)(O)C[C@@H]1CC[C@H]1[C@@H]3CC[C@H](C(=O)c4ccc(OC(F)(F)F)cc4)[C@@]3(C)CC[C@@H]12 [Compound 102]	7.00 to 7.30
C[C@@]1(O)CC[C@@]2(C)[C@@H](CC[C@@H]3[C@@H]2CC[C@]2(C)[C@@H](C(=O)c4ccc5c(c4)OCO5)CC[C@@H]32)C1 [Compound 133]	< 7.00
C[C@@]1(O)CC[C@@]2(C)[C@@H](CC[C@@H]3[C@@H]2CC[C@]2(C)[C@@H](C(=O)c4cccnc4)CC[C@@H]32)C1 [Compound 125]	7.30 to 7.70
C[C@@]1(O)CC[C@H]2[C@H](CC[C@@H]3[C@@H]2CC[C@]2(C)[C@@H](C(=O)c4cccs4)CC[C@@H]32)C1 [Compound 4]	7.30 to 7.70
C[C@@]1(O)CC[C@H]2[C@H](CC[C@@H]3[C@@H]2CC[C@]2(C)[C@@H](C(=O)c4ccc5c(c4)OCO5)CC[C@@H]32)C1 [Compound 35]	> 7.70
C[C@@]1(O)CC[C@@]2(C)[C@H](CC[C@@H]3[C@@H]2CC[C@]2(C)[C@@H](C(=O)c4ccc(F)cc4)CC[C@@H]32)C1 [Compound 54]	7.00 to 7.30
C[C@@]1(O)CC[C@@]2(C)[C@H](CC[C@@H]3[C@@H]2CC[C@]2(C)[C@@H](C(=O)c4ccccc4)CC[C@@H]32)C1 [Compound 28]	7.30 to 7.70
Cc1ccc(C(=O)[C@H]2CC[C@H]3[C@@H]4CC[C@@H]5C[C@](C)(O)CC[C@]5(C)[C@H]4CC[C@]23C)cc1F [Compound 27]	7.30 to 7.70
Cn1cc(C(=O)[C@H]2CC[C@H]3[C@@H]4CC[C@@H]5C[C@](C)(O)CC[C@@H]5[C@H]4CC[C@]23C)nn1 [Compound 100]	< 7.00
COC[C@]12CC[C@@](C)(O)C[C@@H]1CC[C@H]1[C@@H]3CC[C@H](C(=O)c4ccccc4-c4ccccc4)[C@@]3(C)CC[C@@H]12 [Compound 91]	< 7.00
C[C@@]1(O)CC[C@H]2[C@H](CC[C@@H]3[C@@H]2CC[C@]2(C)[C@@H](C(=O)c4cccc(F)c4)CC[C@@H]32)C1 [Compound 56]	7.30 to 7.70
C[C@@]1(O)CC[C@H]2[C@@H](CC[C@@H]3[C@@H]2CC[C@]2(C)[C@@H](C(=O)c4ccc(-c5ccccc5)cc4)CC[C@@H]32)C1 [Compound 58]	7.00 to 7.30
COC[C@]12CC[C@@](C)(O)C[C@@H]1CC[C@H]1[C@@H]3CC[C@H](C(=O)c4ccc(C)cc4)[C@@]3(C)CC[C@@H]12 [Compound 92]	< 7.00
Cn1ccc(C(=O)[C@H]2CC[C@H]3[C@@H]4CC[C@H]5C[C@](C)(O)CC[C@]5(C)[C@H]4CC[C@]23C)n1 [Compound 123]	< 7.00
C[C@@]1(O)CC[C@H]2[C@H](CC[C@@H]3[C@@H]2CC[C@]2(C)[C@@H](C(=O)c4csc5ccccc45)CC[C@@H]32)C1 [Compound 11]	7.30 to 7.70
C[C@@]1(O)CC[C@H]2[C@@H](CC[C@@H]3[C@@H]2CC[C@]2(C)[C@@H](C(=O)c4ccc5ccccc5c4)CC[C@@H]32)C1 [Compound 59]	7.00 to 7.30
C[C@@]1(O)CC[C@@]2(C)[C@H](CC[C@@H]3[C@@H]2CC[C@]2(C)[C@@H](C(=O)c4ccc(-c5ccccc5)cc4)CC[C@@H]32)C1 [Compound 22]	7.00 to 7.30
C[C@@]1(O)CC[C@@]2(C)[C@@H](CC[C@@H]3[C@@H]2CC[C@]2(C)[C@@H](C(=O)c4cc(F)cc(F)c4)CC[C@@H]32)C1 [Compound 37]	7.00 to 7.30
C[C@@]1(O)CC[C@H]2[C@H](CC[C@@H]3[C@@H]2CC[C@]2(C)[C@@H](C(=O)c4ccc5ccccc5c4)CC[C@@H]32)C1 [Compound 19]	7.00 to 7.30
COC[C@]12CC[C@@](C)(O)C[C@@H]1CC[C@H]1[C@@H]3CC[C@H](C(=O)c4cccc(Cl)c4)[C@@]3(C)CC[C@@H]12 [Compound 110]	7.00 to 7.30
COc1ccc(C(=O)[C@H]2CC[C@H]3[C@@H]4CC[C@H]5C[C@](C)(O)CC[C@]5(C)[C@H]4CC[C@]23C)c(C)c1 [Compound 132]	< 7.00

Compound	pIC50
C[C@@]1(O)CC[C@@]2(C)[C@@H](CC[C@@H]3[C@@H]2CC[C@]2(C)[C@@H](C(=O)c4ccccn4)CC[C@@H]32)C1 [Compound 113]	< 7.00
COC[C@]12CC[C@@](C)(O)C[C@@H]1CC[C@H]1[C@@H]3CC[C@H](C(=O)c4ccc(OC)cc4)[C@@]3(C)CC[C@@H]12 [Compound 107]	7.00 to 7.30
C[C@@]1(O)CC[C@@]2(C)[C@H](CC[C@@H]3[C@@H]2CC[C@]2(C)[C@@H](C(=O)c4ccc(Cl)cc4)CC[C@@H]32)C1 [Compound 51]	7.00 to 7.30
COc1ccc(C(=O)[C@H]2CC[C@H]3[C@@H]4CC[C@H]5C[C@](C)(O)CC[C@]5(C)[C@H]4CC[C@]23C)cc1 [Compound 76]	< 7.00
COc1cc(OC)cc(C(=O)[C@H]2CC[C@H]3[C@@H]4CC[C@@H]5C[C@](C)(O)CC[C@]5(C)[C@H]4CC[C@]23C)c1 [Compound 21]	< 7.00
C[C@@]1(O)CC[C@H]2[C@H](CC[C@@H]3[C@@H]2CC[C@]2(C)[C@@H](C(=O)c4ccccn4)CC[C@@H]32)C1 [Compound 60]	< 7.00
C[C@@]1(O)CC[C@@]2(C)[C@H](CC[C@@H]3[C@@H]2CC[C@]2(C)[C@@H](C(=O)c4ccccn4)CC[C@@H]32)C1 [Compound 62]	< 7.00
COc1cccc(C(=O)[C@H]2CC[C@H]3[C@@H]4CC[C@H]5C[C@](C)(O)CC[C@@H]5[C@H]4CC[C@]23C)c1 [Compound 71]	< 7.00
Cc1cccc(C(=O)[C@H]2CC[C@H]3[C@@H]4CC[C@H]5C[C@](C)(O)CC[C@]5(C)[C@H]4CC[C@]23C)c1 [Compound 82]	< 7.00
Cc1ccc(C(=O)[C@H]2CC[C@H]3[C@@H]4CC[C@H]5C[C@](C)(O)CC[C@]5(C)[C@H]4CC[C@]23C)cc1F [Compound 45]	< 7.00
COc1ccc(C(=O)[C@H]2CC[C@H]3[C@@H]4CC[C@@H]5C[C@](C)(O)CC[C@]5(C)[C@H]4CC[C@]23C)c(C)c1 [Compound 33]	< 7.00
CN(C)c1ccc(C(=O)[C@H]2CC[C@H]3[C@@H]4CC[C@@H]5C[C@](C)(O)CC[C@]5(C)[C@H]4CC[C@]23C)cc1 [Compound 40]	7.30 to 7.70
Cn1cc(C(=O)[C@H]2CC[C@H]3[C@@H]4CC[C@H]5C[C@](C)(O)CC[C@]5(C)[C@H]4CC[C@]23C)cn1 [Compound 124]	7.00 to 7.30
C[C@@]1(O)CC[C@@]2(C)[C@H](CC[C@@H]3[C@@H]2CC[C@]2(C)[C@@H](C(=O)c4ccccc4F)CC[C@@H]32)C1 [Compound 84]	< 7.00
COc1ccccc1C(=O)[C@H]1CC[C@H]2[C@@H]3CC[C@@H]4C[C@](C)(O)CC[C@@H]4[C@H]3CC[C@]12C [Compound 50]	< 7.00
Cn1c(C(=O)[C@H]2CC[C@H]3[C@@H]4CC[C@@H]5C[C@](C)(O)CC[C@@H]5[C@H]4CC[C@]23C)cc2ccccc21 [Compound 7]	7.00 to 7.30
COC[C@]12CC[C@@](C)(O)C[C@@H]1CC[C@H]1[C@@H]3CC[C@H](C(=O)c4cccc(C)c4)[C@@]3(C)CC[C@@H]12 [Compound 103]	< 7.00
C[C@@]1(O)CC[C@@]2(C)[C@H](CC[C@@H]3[C@@H]2CC[C@]2(C)[C@@H](C(=O)c4cc(F)cc(F)c4)CC[C@@H]32)C1 [Compound 23]	7.00 to 7.30
COC[C@]12CC[C@@](C)(O)C[C@@H]1CC[C@H]1[C@@H]3CC[C@H](C(=O)c4ccccn4)[C@@]3(C)CC[C@@H]12 [Compound 115]	< 7.00
CCc1ccc(C(=O)[C@H]2CC[C@H]3[C@@H]4CC[C@@H]5C[C@](C)(O)CC[C@@H]5[C@H]4CC[C@]23C)cc1 [Compound 42]	> 7.70
